We go through 16 compounds from patent publication US9957265B2, “N-(2-cyano heterocyclyl) pyrazolo pyridones as janus kinase inhibitors” (Merck Sharp & Dohme Corp., priority 2013, dated 2018).

In one assay the target is JAK2 (Homo sapiens (Human), UniProt O60674). Kind of assay: Jak Biochemical HTRF Assay (JAK2). On the technique in general: In TR-FRET formats the signal depends on donor and acceptor labels being close together.
Another assay has as its target JAK1 (Homo sapiens (Human), UniProt P23458). Put plainly: Jak Biochemical HTRF Assay (JAK1). To be noted: recombinant GST-tagged catalytic domain, [ATP] 31.8 μM, unit not given (compound concentrations tested given in nM). An excerpt: Jak Biochemical HTRF Assay Protocol
Subsequent reagent additions employed an Agilent Bravo.

[1] abbreviates: JAK2 IC50, recombinant GST-tagged catalytic domain, [ATP] 8.5 μM, unit not given (compound concentrations tested given in nM).
[2] abbreviates: read-out: JAK2 IC50, recombinant GST-tagged catalytic domain, [ATP] 8.5 μM, unit not given (compound concentrations tested given in nM).

Read-outs that look alike come from different tables or passages of the source.

JAK1, sequence (P23458 875-1153): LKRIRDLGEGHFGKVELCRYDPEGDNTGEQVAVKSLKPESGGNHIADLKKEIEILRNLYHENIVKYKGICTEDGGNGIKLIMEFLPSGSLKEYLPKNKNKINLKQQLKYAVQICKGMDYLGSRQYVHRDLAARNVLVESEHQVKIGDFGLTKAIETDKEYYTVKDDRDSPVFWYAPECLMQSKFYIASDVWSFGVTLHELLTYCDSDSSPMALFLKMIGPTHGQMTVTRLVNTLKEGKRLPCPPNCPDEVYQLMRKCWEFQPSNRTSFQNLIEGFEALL
JAK2, sequence (O60674 849-1124): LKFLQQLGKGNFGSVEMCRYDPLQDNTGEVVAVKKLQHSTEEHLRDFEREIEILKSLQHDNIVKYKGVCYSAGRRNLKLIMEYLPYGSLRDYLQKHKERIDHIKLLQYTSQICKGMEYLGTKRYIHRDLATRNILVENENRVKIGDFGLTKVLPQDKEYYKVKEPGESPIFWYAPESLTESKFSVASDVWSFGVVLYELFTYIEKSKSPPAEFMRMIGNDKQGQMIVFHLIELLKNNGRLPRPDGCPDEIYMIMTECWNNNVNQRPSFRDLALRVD

In the case of `CC(O)(c1ccc(Nc2nn([C@H]3COCC[C@@H]3C#N)c3cc[nH]c(=O)c23)cc1)C(F)(F)F` (single isomer, unassigned) [Example 2-4, (3R,4S)-3-[4-oxo-3-({4-[(1R or 1S)-2,2,2-trifluoro-1-hydroxy-1-methylethyl]phenyl}amino)-4,5-dihydro-1H-pyrazolo[4,3-c]pyridin-1-yl]tetrahydro-2H-pyran-4-carbonitrile], the IC50 stood at 0.27 nM at JAK2 (setting [1]) and 0.05 nM on JAK1.

As to `N#C[C@H]1CCOC[C@@H]1n1nc(Nc2ccc(C(N3CCSCC3)C(F)(F)F)cc2)c2c(=O)[nH]ccc21` (single isomer, unassigned) [Example 2-5, (3R,4S)-3-[4-oxo-3-({4-[(1S or 1R)-2,2,2-trifluoro-1-thiomorpholin-4-ylethyl]phenyl}amino)-4,5-dihydro-1H-pyrazolo[4,3-c]pyridin-1-yl]tetrahydro-2H-pyran-4-carbonitrile], the IC50 at JAK2 (setting [1]) stood at 0.15 nM; on JAK1 it was 0.14 nM.

`N#C[C@H]1CCOC[C@@H]1n1nc(Nc2ccc(C(N3CCSCC3)C(F)(F)F)cc2)c2c(=O)[nH]ccc21` (single isomer, unassigned) [Example 2-6, (3R,4S)-3-[4-oxo-3-({4-[(1R or 1S)-2,2,2-trifluoro-1-thiomorpholin-4-ylethyl]phenyl}amino)-4,5-dihydro-1H-pyrazolo[4,3-c]pyridin-1-yl]tetrahydro-2H-pyran-4-carbonitrile]: the results for the IC50 at JAK2 (setting [1]) and on JAK1 were 0.24 nM and 0.21 nM, respectively.

Turning to `N#C[C@H]1CCOC[C@@H]1n1nc(Nc2ccc(C3(C(F)(F)F)CCCCN3)cc2)c2c(=O)[nH]ccc21` (single isomer, unassigned) [Example 2-7, (3R,4S)-3-[4-oxo-3-({4-[(2S or 2R)-2-(trifluoromethyl)piperidin-2-yl]phenyl}amino)-4,5-dihydro-1H-pyrazolo[4,3-c]pyridin-1-yl] tetrahydro-2H-pyran-4-carbonitrile], the IC50 on JAK2 (setting [1]) worked out at 0.06 nM; at JAK1 it was 0.05 nM.

As for `N#C[C@H]1CCOC[C@@H]1n1nc(Nc2ccc(C3(C(F)(F)F)CCCCN3)cc2)c2c(=O)[nH]ccc21` (single isomer, unassigned) [Example 2-8, (3R,4S)-3-[4-oxo-3-({4-[(2R or 2S)-2-(trifluoromethyl)piperidin-2-yl]phenyl}amino)-4,5-dihydro-1H-pyrazolo[4,3-c]pyridin-1-yl] tetrahydro-2H-pyran-4-carbonitrile], the IC50 on JAK2 (setting [1]) and on JAK1 was 0.05 nM each time.

`C[S+]([O-])c1cc(Nc2nn([C@H]3COCC[C@@H]3C#N)c3cc[nH]c(=O)c23)ccc1F` (single isomer, unassigned) [Example 3-2, (3R,4S)-3-(3-((4-fluoro-3-((S or R)-methylsulfinyl)phenyl)amino)-4-oxo-4,5-dihydro-1H-pyrazolo[4,3-c]pyridin-1-yl)tetrahydro-2H-pyran-4-carbonitrile]: the results for the IC50 at JAK2 (setting [1]) and at JAK1 were 13.7 nM and 0.89 nM, respectively.

Take `C[S+]([O-])c1cc(Nc2nn([C@H]3COCC[C@@H]3C#N)c3cc[nH]c(=O)c23)ccc1F` (single isomer, unassigned) [Example 3-3, (3R,4S)-3-(3-((4-fluoro-3-((S or R)-methylsulfinyl)phenyl)amino)-4-oxo-4,5-dihydro-1H-pyrazolo[4,3-c]pyridin-1-yl)tetrahydro-2H-pyran-4-carbonitrile]: the results for the IC50 at JAK2 (setting [1]) and on JAK1 were 7.44 nM and 1.64 nM, respectively.

For `C[C@H]1CN(S(=O)(=O)c2ccc(Nc3nn([C@H]4COCC[C@@H]4C#N)c4cc[nH]c(=O)c34)cc2)C[C@H](C)O1` (stereo in doubt) [Example 1-76, (3R,4S)-3-{3-[(4-{[(trans)-2,6-dimethylmorpholin-4-yl]sulfonyl}phenyl)amino]-4-oxo-4,5-dihydro-1H-pyrazolo[4,3-c]pyridin-1-yl}tetrahydro-2H-pyran-4-carbonitrile], the values for the IC50 on JAK2 (setting [2]) and on JAK1 were 0.82 nM and 0.24 nM, respectively.

As for `CS(=O)(=O)c1ccc(Nc2nn([C@@H]3COCC[C@H]3C#N)c3cc[nH]c(=O)c23)cc1` [Example 1-1, (3S,4R)-3-(3-((4-(methylsulfonyl)phenyl)amino)-4-oxo-4,5-dihydro-1H-pyrazolo[4,3-c]pyridin-1-yl)tetrahydro-2H-pyran-4-carbonitrile], the IC50 on JAK2 (setting [2]) worked out at 11.5 nM; at JAK1, 7.06 nM.

Take `CS(=O)(=O)c1ccc(Nc2nn([C@H]3COCC[C@@H]3C#N)c3cc[nH]c(=O)c23)cc1` [Example 1-2, (3R,4S)-3-(3-((4-(methylsulfonyl)phenyl)amino)-4-oxo-4,5-dihydro-1H-pyrazolo[4,3-c]pyridin-1-yl)tetrahydro-2H-pyran-4-carbonitrile]: the results for the IC50 at JAK2 (setting [2]) and at JAK1 were 0.35 nM and 0.05 nM, respectively.

For `N#C[C@H]1CCOC[C@@H]1n1nc(Nc2ccccc2)c2c(=O)[nH]ccc21` [Example 1-3, (3R,4S)-3-(4-oxo-3-(phenylamino)-4,5-dihydro-1H-pyrazolo[4,3-c]pyridin-1-yl)tetrahydro-2H-pyran-4-carbonitrile], the IC50 at JAK2 (setting [2]) was 1.39 nM; on JAK1, 0.11 nM.

For the compound `CN1Cc2cc(Nc3nn([C@H]4COCC[C@@H]4C#N)c4cc[nH]c(=O)c34)ccc2S1(=O)=O` [Example 1-4, (3R,4S)-3-(3-((2-methyl-1,1-dioxido-2,3-dihydrobenzo[d]isothiazol-5-yl)amino)-4-oxo-4,5-dihydro-1H-pyrazolo[4,3-c]pyridin-1-yl)tetrahydro-2H-pyran-4-carbonitrile], the values for the IC50 at JAK2 (setting [2]) and on JAK1 were 0.34 nM and 0.04 nM, respectively.

Consider `CC(C)(C)N1Cc2cc(Nc3nn([C@H]4COCC[C@@H]4C#N)c4cc[nH]c(=O)c34)ccc2S1(=O)=O` [Example 1-5, (3R,4S)-3-(3-((2-(tert-butyl)-1,1-dioxido-2,3-dihydrobenzo[d]isothiazol-5-yl)amino)-4-oxo-4,5-dihydro-1H-pyrazolo[4,3-c]pyridin-1-yl)tetrahydro-2H-pyran-4-carbonitrile], for which the IC50 on JAK2 (setting [2]) came to 0.15 nM; on JAK1, 0.05 nM.

For `CN(C)S(=O)(=O)c1ccc(Nc2nn([C@H]3COCC[C@@H]3C#N)c3cc[nH]c(=O)c23)cc1` [Example 1-6, 4-((1-((3R,4S)-4-cyanotetrahydro-2H-pyran-3-yl)-4-oxo-4,5-dihydro-1H-pyrazolo[4,3-c]pyridin-3-yl)amino)-N,N-dimethyl-benzenesulfonamide], the results for the IC50 on JAK2 (setting [2]) and at JAK1 were 0.21 nM and 0.07 nM, respectively.

For the compound `CC(C)(C)NS(=O)(=O)c1ccc(Nc2nn([C@H]3COCC[C@@H]3C#N)c3cc[nH]c(=O)c23)cc1` [Example 1-10, N-(tert-butyl)-4-((1-((3R,4S)-4-cyanotetrahydro-2H-pyran-3-yl)-4-oxo-4,5-dihydro-1H-pyrazolo[4,3-c]pyridin-3-yl)amino)benzenesulfonamide], the results for the IC50 at JAK2 (setting [2]) and on JAK1 were 0.21 nM and 0.08 nM, respectively.

Turning to `CC(C)S(=O)(=O)c1ccc(Nc2nn([C@H]3COCC[C@@H]3C#N)c3cc[nH]c(=O)c23)cc1` [Example 1-11, (3R,4S)-3-(3-((4-(isopropylsulfonyl)phenyl)amino)-4-oxo-4,5-dihydro-1H-pyrazolo[4,3-c]pyridin-1-yl)tetrahydro-2H-pyran-4-carbonitrile], the values for the IC50 on JAK2 (setting [2]) and on JAK1 were 0.34 nM and 0.09 nM, respectively.
